Format in all cases: biochemical
The target in test [1] is T1, KRas G12V (Homo sapiens, UniProt P01116, G12V).
T1 construct: Biotinylated KRas G12V (aa 1-169) loaded with GDP nucleotide; biotin (biotinylated)
Briefly: SOS1-Catalyzed Nucleotide Exchange Assay, KRas G12V (Method 1). The note with it: 5 nM KRas G12V (aa 1-169, GDP-loaded), 50 nM SOS1. How it is done:
KRas G12V [Method 1]: Biotinylated KRas G12V (aa 1-169) loaded with GDP nucleotide and Streptavidin-Europium (SA-EU, Columbia Biosciences) were preincubated in assay buffer (20 mM HEPES pH 7.4, 150 mM NaCl, 5 mM MgCl2, 1 mM DTT, 0.01% Brij-35, 0.3 mg/mL BSA) on ice for 30 min. Separately SOS1 (aa 546-1049) and EDA-GTP-DY647P1 (Jena Bioscience) were preincubated in assay buffer on ice for 30 min. After pre-incubation, 5 μL buffer and 5 μL of KRas G12V-SA-Eu were added to each well of a white, low-volume, non-binding 384-well plate. Compounds were then added to respective wells with a Tecan D300e liquid dispenser. A 10-point concentration response curve for each compound was prepared with appropriate top concentration (1 μM, 10 μM, or 300 μM) and incubated for 30 min. 5 μL of SOS1-EDA-GTP-D467P1 was added to start the nucleotide exchange reaction. Final concentration in the assay were 5 nM KRas G12V, 50 nM SOS1 (aa 564-1049). The reaction was allowed to proceed for 60-90 minutes after which the plate was read on a PHERAstar FSX plate reader (exc: 337 nm, em 1: 665 nm, em 2: 620 nm). After normalization of the raw data (ratio of Signal665nm/Signal620nm) the data was fit to a four-parameter logistic curve in GraphPad Prism (v9.4.1).

The target in test [2] is T2, KRas WT (Homo sapiens, UniProt P01116).
T2 construct: Biotinylated KRas WT(1-169); biotin (biotinylated)
Briefly: SOS1-Catalyzed Nucleotide Exchange Assay, KRas WT. The note with it: 20 nM KRas WT (1-169, GDP-loaded), 10 nM SOS1. As for the experimental part: (§1) KRas G12R and WT: Compounds were pre-dispensed using acoustic transfer technology into a black, low volume 384-well assay plate. A 10-point dose response of each compound was performed with a 30 μM top dose. Biotinylated KRas WT(1-169) or KRas G12R (1-169) loaded with GDP nucleotide was mixed with Streptavidin-Tb cryptate (Cisbio) in assay buffer (20 mM HEPES pH 7.4, 150 mM NaCl, 2 mM MgCl2, and 0.005% CA680) to produce a 1.5× solution. 10 μL of the 1.5× KRas-cryptate solution was added to wells of a black, low-volume 384-well assay plate. The KRas/cryptate-compound mixture was incubated for 1 hour at room temperature. A 3× solution of SOS1 (564-1049) and EDA-GTP-DY-647P1 (Jena Bioscience) was prepared in assay buffer. 5 μL of the SOS1-labeled GTP solution was added to the wells to initiate the nucleotide exchange reaction. The final concentration of KRas G12R and SOS1 were 10 nM and 200 nM, respectively. The final concentration of KRas WT and SOS1 were 20 nM and 10 nM, respectively. The plate was allowed to incubate for 1 hr, then time resolved fluorescence was read on a PHERAstar plate reader equipped with a filter module with excitation=337 nm and emission 1=620 nm, emission 2=665 nm. The TR-FRET signal was calculated as the ratio of fluorescence intensity [emission 665 nm]/[emission 620 nm]. IC50 values were calculated using a four-parameter, variable response sigmoidal dose response curve fit in PerkinElmer Signals VitroVivo.

Test [3] addresses T3, KRas G12R (Homo sapiens, UniProt P01116, G12R).
T3 construct: KRas G12R (1-169) loaded with GDP nucleotide; biotin (biotinylated)
Briefly: SOS1-Catalyzed Nucleotide Exchange Assay, KRas G12R. The settings on record: 10 nM KRas G12R (1-169, GDP-loaded), 200 nM SOS1. As for the experimental part: as §1

For test [4], the target named is T1, KRas G12V. Briefly: SOS1-Catalyzed Nucleotide Exchange Assay, KRas G12V (Method 2). The settings on record: Method 2, B; 5 nM KRas G12V (aa 1-169, GDP-loaded), 50 nM SOS1; read-out: KRas G12V IC50 (nM) (Method 2, B). In a few lines:
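Biotinylated GDP-loaded KRas G12V (aa 1-169, 5 nM final) with SA-Eu, preincubated 30 min with compound, then SOS1 (50 nM) plus EDA-GTP-DY647P1 added; exchange ran 60-90 min in HEPES pH 7.4 buffer. 10-point curves, top 1, 10 or 100 μM; normalized data fit to four-parameter logistic.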

T1 sequence (P01116 1-169 G12V): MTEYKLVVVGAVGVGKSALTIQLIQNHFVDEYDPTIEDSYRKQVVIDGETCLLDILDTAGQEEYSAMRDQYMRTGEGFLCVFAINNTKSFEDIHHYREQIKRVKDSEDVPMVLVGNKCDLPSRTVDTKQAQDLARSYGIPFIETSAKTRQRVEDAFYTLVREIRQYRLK
T2 sequence (P01116 1-169): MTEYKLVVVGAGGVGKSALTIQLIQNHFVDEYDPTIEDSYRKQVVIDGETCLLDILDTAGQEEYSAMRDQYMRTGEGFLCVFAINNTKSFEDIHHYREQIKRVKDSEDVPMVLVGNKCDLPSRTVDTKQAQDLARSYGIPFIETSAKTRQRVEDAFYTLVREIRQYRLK
T3 sequence (P01116 1-169 G12R): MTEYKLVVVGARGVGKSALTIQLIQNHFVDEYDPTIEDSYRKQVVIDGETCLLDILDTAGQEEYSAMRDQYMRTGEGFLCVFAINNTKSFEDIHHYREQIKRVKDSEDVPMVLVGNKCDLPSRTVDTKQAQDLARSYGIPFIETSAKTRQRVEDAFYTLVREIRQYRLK

By IC50 is commonly meant the concentration at which inhibition is half-maximal. For the compound `O=C1CCCCc2c(Cl)cc(O)cc2-c2ncc3c(nc(OC[C@@]45CCCN4C[C@H](F)C5)nc3c2F)N2CCC[C@H](CCN1)C2` (single isomer, unassigned) [Compound 115b], the IC50 in test [1] and in test [3] was not above 100 nM throughout. Further, the “KRas WT IC50 (nM)” value in test [2] is “++ ++”.

Consider `O=C1CCCCc2c(Cl)cc(O)cc2-c2ncc3c(nc(OC[C@@]45CCCN4C[C@H](F)C5)nc3c2F)N2CCC[C@@H](CCN1)C2` (single isomer, unassigned) [Compound 115c], for which the half-maximal inhibitory concentration (IC50) in test [1], in test [2] and in test [3] was not above 100 nM throughout.

Consider `O=C1CCc2c(Cl)cc(O)cc2-c2ncc3c(nc(OC[C@@]45CCCN4C[C@H](F)C5)nc3c2F)N2CCCC(CCN1)C2` (stereo partly drawn) [Compound 113a, 3^3-chloro-2^8-fluoro-2^2-(((2R,7aS)-2-fluorotetrahydro-1H-pyrrolizin-7a(5H)-yl)methoxy)-3^5-hydroxy-7-aza-2(4,7)-pyrido[4,3-d]pyrimidina-1(1,3)-piperidina-3(1,2)-benzenacyclononaphan-6-one], for which the results for the IC50 in test [1], in test [2] and in test [3] were 1000 to 10000 nM, 1000 to 10000 nM and 10000 to 30000 nM, respectively.

On to `O=C1CCCCc2c(Cl)cc(O)cc2-c2ncc3c(nc(OC[C@@]45CCCN4C[C@H](F)C5)nc3c2F)N2CCCC(CCN1)C2` (stereo partly drawn) [Compound 115a, 3^3-chloro-2^8-fluoro-2^2-(((2R,7aS)-2-fluorotetrahydro-1H-pyrrolizin-7a(5H)-yl)methoxy)-3^5-hydroxy-9-aza-2(4,7)-pyrido[4,3-d]pyrimidina-1(1,3)-piperidina-3(1,2)-benzenacycloundecaphan-8-one], for which the half-inhibitory concentration (IC50) in test [1], in test [2] and in test [3] was not above 100 nM each time.

For the compound `Oc1cc2c3c(c(F)ccc3c1)-c1cn(nn1)CCCCC1CCCN(C1)c1nc(OC[C@@]34CCCN3C[C@H](F)C4)nc3c(F)c-2ncc13` (stereo partly drawn) [Compound 125a, (Z)-2^8,3^7-difluoro-2^2-(((2R,7aS)-2-fluorotetrahydro-1H-pyrrolizin-7a(5H)-yl)methoxy)-4^1H-2(4,7)-pyrido[4,3-d]pyrimidina-1(1,3)-piperidina-4(4,1)-triazola-3(1,8)-naphthalenacyclooctaphan-3^3-ol], the IC50 in test [1] was in the range of 10000 to 30000 nM; in test [2], 1000 to 10000 nM; in test [3] it was 10000 to 30000 nM.

On to `O=C1CCCCc2c(Cl)cc(O)cc2-c2ncc3c(nc(OC[C@@]45CCCN4C[C@H](F)C5)nc3c2F)N2CCCC(O)(CCN1)C2` (stereo partly drawn) [Compound 140a, 3^3-chloro-2^8-fluoro-2^2-(((2R,7aS)-2-fluorotetrahydro-1H-pyrrolizin-7a(5H)-yl)methoxy)-1^3,3^5-dihydroxy-9-aza-2(4,7)-pyrido[4,3-d]pyrimidina-1(1,3)-piperidina-3(1,2)-benzenacycloundecaphan-8-one], for which the concentration for half-maximal inhibition (IC50) in test [1] is not above 100 nM.

As to `O=C1CCCCc2c(Cl)cc(O)cc2-c2ncc3c(nc(OC[C@@]45CCCN4C[C@H](F)C5)nc3c2F)N2CCCC(CN1)C2` (stereo partly drawn) [Compound 141a, 3^3-chloro-2^8-fluoro-2^2-(((2R,7aS)-2-fluorotetrahydro-1H-pyrrolizin-7a(5H)-yl)methoxy)-3^5-hydroxy-9-aza-2(4,7)-pyrido[4,3-d]pyrimidina-1(1,3)-piperidina-3(1,2)-benzenacyclodecaphan-8-one], the IC50 in test [1] was not above 100 nM.

In the case of `Oc1ccc2c(c1)-c1ncc3c(nc(OC[C@@]45CCCN4C[C@H](F)C5)nc3c1F)N1CCCC(CCCCCCC2)C1` (stereo partly drawn) [Compound 143a, 2^8-fluoro-2^2-(((2R,7aS)-2-fluorotetrahydro-1H-pyrrolizin-7a(5H)-yl)methoxy)-2(4,7)-pyrido[4,3-d]pyrimidina-1(1,3)-piperidina-3(1,2)-benzenacyclodecaphan-3^5-ol], the values for the IC50 in test [1], in test [2] and in test [3] were 100 to 1000 nM, not above 100 nM and 100 to 1000 nM, respectively.

Consider `Oc1cc(Cl)c2c(c1)-c1ncc3c(nc(OC[C@@]45CCCN4C[C@H](F)C5)nc3c1F)N1CCCC(O)(CCCCCC2)C1` (stereo partly drawn) [Compound 151a, 3^3-chloro-2^8-fluoro-2^2-(((2R,7aS)-2-fluorotetrahydro-1H-pyrrolizin-7a(5H)-yl)methoxy)-2(4,7)-pyrido[4,3-d]pyrimidina-1(1,3)-piperidina-3(1,2)-benzenacyclononaphane-1^3,3^5-diol], for which the IC50 in test [1], in test [2] and in test [3] was not above 100 nM throughout.

`Oc1cc(Cl)c2c(c1)-c1ncc3c(nc(OC[C@@]45CCCN4C[C@H](F)C5)nc3c1F)N1CCCC(O)(CCCCCCC2)C1` (stereo partly drawn) [Compound 152a, 3^3-chloro-2^8-fluoro-2^2-(((2R,7aS)-2-fluorotetrahydro-1H-pyrrolizin-7a(5H)-yl)methoxy)-2(4,7)-pyrido[4,3-d]pyrimidina-1(1,3)-piperidina-3(1,2)-benzenacyclodecaphane-1^3,3^5-diol]: the half-maximal inhibitory concentration (IC50) in test [1], in test [2] and in test [3] was not above 100 nM in each case.

With `Oc1cc(Cl)c2c(c1)-c1ncc3c(nc(OC[C@@]45CCCN4C[C@H](F)C5)nc3c1F)N1CCCC(Cc3noc(n3)CCCCCC2)C1` (stereo partly drawn) [Compound 153a, (Z)-1^3-chloro-2^8-fluoro-2^2-(((2R,7aS)-2-fluorotetrahydro-1H-pyrrolizin-7a(5H)-yl)methoxy)-5(3,5)-oxadiazola-2(7,4)-pyrido[4,3-d]pyrimidina-3(1,3)-piperidina-1(1,2)-benzenacycloundecaphan-1^5-ol], the half-inhibitory concentration (IC50) in test [1], in test [2] and in test [3] was 100 to 1000 nM in each case.

`O=C1CCCCc2c(Cl)cc3[nH]ncc3c2-c2ncc3c(nc(OC[C@@]45CCCN4C[C@H](F)C5)nc3c2F)N2CCOCC(CN1)C2` (stereo partly drawn) [Compound 203a, 3^6-chloro-2^8-fluoro-2^2-(((2R,7aS)-2-fluorotetrahydro-1H-pyrrolizin-7a(5H)-yl)methoxy)-3^1H-9-aza-1(4,6)-oxazepana-2(4,7)-pyrido[4,3-d]pyrimidina-3(4,5)-indazolacyclodecaphan-8-one]: in test [4], the IC50 is not above 100 nM.

The values are drawn from patent US20260364089A1, “PYRIDOPYRIMIDINE KRAS INHIBITORS” (Treeline Biosciences, Inc., priority 2022, published 2026).
